These are literature values, as cited in patent US20210059976A1, “ORAL PHARMACEUTICAL FORMULATION COMPRISING CANNABINOIDS AND POLOXAMER” (GW Research Limited, priority 2018, published 2021).

Molecules are shown by their SMILES. Where two headings read alike, the source gives them in different places.

Series [1] concerns acute experimental models of generalized seizure.
The conditions of series [2]: 20 mg oral administration, man.

In the case of `CCCCCc1cc(O)c2c(c1)OC(C)(C)[C@@H]1CCC(C)=C[C@@H]21` [THC, tetrahydrocannabinol], in series [1] (between 1.25 and 10 mg/kg), the “efficacy in acute experimental models of generalized seizure” value is listed as “efficacious”. Moreover, the somnolence result in series [2] is listed as “induces somnolence”.

Turning to `C=C(C)[C@@H]1CCC(C)=C[C@H]1c1c(O)cc(CCCCC)cc1O` [CBD, cannabidiol], the Oral bioavailability result is “low and unpredictable”. Further, the “efficacy in acute experimental models of generalized seizure” value in series [1] (100 mg/kg, but not 1 or 10 mg/kg) is on record as “efficacious”.
